Assay results as given in US7015215B2, “Pyrrolo[2,1-c][1,4] benzodiazepines compounds and process thereof” (Council of Scientific and Industrial Research, priority 2003, dated 2006).

Assays:
HS578T = assay: NCI SRB cytotoxicity, Breast HS578T; assay type: cell-based, human; conditions: 48 h
Procedure: (§1) Biological Activity: In vitro biological activity studies were carried out at National Cancer Institute (U.S.A.).
(§2) For each compound, dose response curves for each cell line were measured at a minimum of five concentrations at 10 fold dilutions. A protocol of 48 h continuous drug exposure was used, and a sulforhodamine B (SRB) protein assay was used to estimate cell viability or growth. The concentration causing 50% cell growth inhibition (GI50), total cell growth inhibition (TGI, 0% growth) and 50% cell death (LC50, −50% growth) compared with the control was calculated.

human tumor cell lines = assay: NCI in vitro cytotoxicity SRB assay, mean graph midpoints over the panel; assay type: cell-based; conditions: 48 h continuous exposure
Procedure: as §1, §2

T-47D = assay: NCI SRB cytotoxicity, Breast T-47D; assay type: cell-based, human; conditions: 48 h
Procedure: as §1, §2

CAKI-1 = assay: NCI SRB cytotoxicity, Renal CAKI-1; assay type: cell-based, human; conditions: CAKI-1, Renal, 48 h
Procedure: as §1, §2

MDA-MB-231/ATCC = assay: NCI SRB cytotoxicity, Breast MDA-MB-231/ATCC; assay type: cell-based, human; conditions: 48 h
Procedure: as §1, §2

HCC-2998 = assay: NCI SRB cytotoxicity, Colon HCC-2998; assay type: cell-based, human; conditions: HCC-2998, Colon, 48 h
Procedure: as §1, §2

SF-295 = assay: NCI SRB cytotoxicity, CNS SF-295; assay type: cell-based, human; conditions: SF-295, CNS, 48 h
Procedure: as §1, §2

IGROVI = assay: NCI SRB cytotoxicity, Ovarian IGROVI; assay type: cell-based, human; conditions: 48 h
NCI-H322 = assay: NCI SRB cytotoxicity, Non-small-cell lung NCI-H322; assay type: cell-based, human; conditions: 48 h
Procedure: as §1, §2

HCT-116 = assay: NCI SRB cytotoxicity, Colon HCT-116; assay type: cell-based, human; conditions: HCT-116, Colon, 48 h
Procedure: as §1, §2

HCT-15 = assay: NCI SRB cytotoxicity, Colon HCT-15; assay type: cell-based, human; conditions: HCT-15, Colon, 48 h
Procedure: as §1, §2

SW-620 = assay: NCI SRB cytotoxicity, Colon SW-620; assay type: cell-based, human; conditions: SW-620, Colon, 48 h
Procedure: as §1, §2

HOP-62 = assay: NCI SRB cytotoxicity, Non-small-cell lung HOP-62; assay type: cell-based, human; conditions: HOP-62, Non-small-cell lung, 48 h
Procedure: as §1, §2

NCI-H226 = assay: NCI SRB cytotoxicity, Non-small-cell lung NCI-H226; assay type: cell-based, human; conditions: 48 h
Procedure: as §1, §2

BT-549 = assay: NCI SRB cytotoxicity, Breast BT-549; assay type: cell-based, human; conditions: BT-549, Breast, 48 h
Procedure: as §1, §2

DU-145 = assay: NCI SRB cytotoxicity, Prostate DU-145; assay type: cell-based, human; conditions: DU-145, Prostate, 48 h
Procedure: as §2

NCI-H23 = assay: NCI SRB cytotoxicity, Non-small-cell lung NCI-H23; assay type: cell-based, human; conditions: 48 h
Procedure: as §1, §2

K-62 = assay: NCI SRB cytotoxicity, Leukemia K-62; assay type: cell-based, human; conditions: K-62, Leukemia, 48 h
Procedure: as §1, §2

HOP-92 = assay: NCI SRB cytotoxicity, Non-small-cell lung HOP-92; assay type: cell-based, human; conditions: HOP-92, Non-small-cell lung, 48 h
Procedure: as §1, §2

PC-3 = assay: NCI SRB cytotoxicity, Prostate PC-3; assay type: cell-based, human; conditions: PC-3, Prostate, 48 h
Procedure: as §2

UACC-62 = assay: NCI SRB cytotoxicity, Melanoma UACC-62; assay type: cell-based, human; conditions: UACC-62, Melanoma, 48 h
Procedure: as §1, §2

NCI/ADR-RES = assay: NCI SRB cytotoxicity, Breast NCI/ADR-RES; assay type: cell-based, human; conditions: 48 h
Procedure: as §1, §2

UO-31 = assay: NCI SRB cytotoxicity, Renal UO-31; assay type: cell-based, human; conditions: UO-31, Renal, 48 h
Procedure: as §2

MCF7 = assay: NCI SRB cytotoxicity, Breast MCF7; assay type: cell-based, human; conditions: 48 h
Procedure: as §1, §2

RPMI-8226 = assay: NCI SRB cytotoxicity, Leukemia RPMI-8226; assay type: cell-based, human; conditions: RPMI-8226, Leukemia, 48 h
Procedure: as §2

COLO 205 = assay: NCI SRB cytotoxicity, Colon COLO 205; assay type: cell-based, human; conditions: COLO 205, Colon, 48 h
Procedure: as §1, §2

U251 = assay: NCI SRB cytotoxicity, CNS U251; assay type: cell-based, human; conditions: 48 h
Procedure: as §1, §2

SK-MEL-5 = assay: NCI SRB cytotoxicity, Melanoma SK-MEL-5; assay type: cell-based, human; conditions: SK-MEL-5, Melanoma, 48 h
Procedure: as §1, §2

UACC-257 = assay: NCI SRB cytotoxicity, Melanoma UACC-257; assay type: cell-based, human; conditions: UACC-257, Melanoma, 48 h
Procedure: as §1, §2

ACHN = assay: NCI SRB cytotoxicity, Renal ACHN; assay type: cell-based, human; conditions: 48 h
Procedure: as §1, §2

HT-29 = assay: NCI SRB cytotoxicity, Colon HT-29; assay type: cell-based, human; conditions: HT-29, Colon, 48 h
Procedure: as §1, §2

SK-MEL-2 = assay: NCI SRB cytotoxicity, Melanoma SK-MEL-2; assay type: cell-based, human; conditions: SK-MEL-2, Melanoma, 48 h
Procedure: as §1, §2

SN12C = assay: NCI SRB cytotoxicity, Renal SN12C; assay type: cell-based, human; conditions: 48 h
Procedure: as §1, §2

SNB-19 = assay: NCI SRB cytotoxicity, CNS SNB-19; assay type: cell-based, human; conditions: SNB-19, CNS, 48 h
Procedure: as §1, §2

SK-MEL-28 = assay: NCI SRB cytotoxicity, Melanoma SK-MEL-28; assay type: cell-based, human; conditions: SK-MEL-28, Melanoma, 48 h
Procedure: as §1, §2

KM-12 = assay: NCI SRB cytotoxicity, Colon KM-12; assay type: cell-based, human; conditions: KM-12, Colon, 48 h
Procedure: as §1, §2

## COc1cc2c(cc1OCCCN1CCN(CCCOc3cc4c(cc3OC)C(=O)N3CCC[C@H]3C=N4)CC1)N=C[C@@H]1CCCN1C2=O [Compound VIb, 1,1′-{[(bispropane-1,N-diyl)piperazine]dioxy}bis[(11aS)-7-methoxy-1,2,3,11a-tetrahydro-5H-pyrrolo[2,1-c][1,4]benzodiazepin-5-one]]
HS578T
  Log GI 50: −6.13 mol/L
  Log LC 50: −4.00 mol/L
Human tumor cell lines
  Log10 GI50 mean graph midpoint (MG_MID): −5.19
  Log10 LC50 mean graph midpoint (MG_MID): −4.01
  Log10 TGI mean graph midpoint (MG_MID): −4.22
T-47D
  Log GI 50: −5.16 mol/L
  Log LC 50: −4.00 mol/L
CAKI-1
  Log GI 50: −4.65 mol/L
  Log LC 50: −4.00 mol/L
MDA-MB-231/ATCC
  Log GI 50: −4.52 mol/L
  Log LC 50: −4.00 mol/L
HCC-2998
  Log GI 50: −4.73 mol/L
  Log LC 50: −4.04 mol/L
SF-295
  Log GI 50: −4.99 mol/L
  Log LC 50: −4.00 mol/L
IGROVI
  Log GI 50: −5.26 mol/L
  Log LC 50: −4.00 mol/L
NCI-H322
  Log GI 50: −4.57 mol/L
  Log LC 50: −4.00 mol/L
HCT-116
  Log GI 50: −4.92 mol/L
  Log LC 50: −4.00 mol/L
HCT-15
  Log GI 50: −4.25 mol/L
  Log LC 50: −4.00 mol/L
SW-620
  Log GI 50: −6.23 mol/L
  Log LC 50: −4.00 mol/L
HOP-62
  Log GI 50: −5.14 mol/L
  Log LC 50: −4.00 mol/L
NCI-H226
  Log GI 50: −4.34 mol/L
  Log LC 50: −4.00 mol/L
BT-549
  Log GI 50: −5.77 mol/L
  Log LC 50: −4.00 mol/L
DU-145
  Log GI 50: −5.62 mol/L
  Log LC 50: −4.00 mol/L
NCI-H23
  Log GI 50: −4.89 mol/L
  Log LC 50: −4.00 mol/L
K-62
  Log GI 50: −5.76 mol/L
  Log LC 50: −4.00 mol/L
HOP-92
  Log GI 50: −6.81 mol/L
  Log LC 50: −4.00 mol/L
PC-3
  Log GI 50: −5.53 mol/L
  Log LC 50: −4.00 mol/L
UACC-62
  Log GI 50: −4.68 mol/L
  Log LC 50: −4.00 mol/L
NCI/ADR-RES
  Log GI 50: −4.00 mol/L
  Log LC 50: −4.00 mol/L
UO-31
  Log GI 50: −4.27 mol/L
  Log LC 50: −4.00 mol/L
MCF7
  Log GI 50: −6.01 mol/L
  Log LC 50: −4.00 mol/L
RPMI-8226
  Log GI 50: −6.73 mol/L
  Log LC 50: −4.00 mol/L
COLO 205
  Log GI 50: −5.34 mol/L
  Log LC 50: −4.00 mol/L
U251
  Log GI 50: −5.41 mol/L
  Log LC 50: −4.00 mol/L
SK-MEL-5
  Log GI 50: −5.66 mol/L
  Log LC 50: −4.50 mol/L
UACC-257
  Log GI 50: −4.45 mol/L
  Log LC 50: −4.00 mol/L
ACHN
  Log GI 50: −4.47 mol/L
  Log LC 50: −4.00 mol/L
HT-29
  Log GI 50: −4.46 mol/L
  Log LC 50: −4.00 mol/L
SK-MEL-2
  Log GI 50: −4.82 mol/L
  Log LC 50: −4.00 mol/L
SN12C
  Log GI 50: −4.44 mol/L
  Log LC 50: −4.00 mol/L
SNB-19
  Log GI 50: −5.06 mol/L
  Log LC 50: −4.00 mol/L
SK-MEL-28
  Log GI 50: −4.48 mol/L
  Log LC 50: −4.00 mol/L
KM-12
  Log GI 50: −4.64 mol/L
  Log LC 50: −4.00 mol/L
